From patent US20250295648A1 (priority 2024, published 2025)
Where “and” joins values, the source holds several entries; their conditions need not be identical. Equal values may be shown once.

Legend:
[1] = tested on: 6-OH-DA lesioned rats; settings: rat, in vivo; cited from earlier work
[2] = tested on: Parkinson's disease symptoms in PD patients with LID; assay: Unified Parkinson's Disease Rating Scale (UPDRS); settings: for UPDRS Part 3 score (motor disability), change from baseline: p=0.0072 vs baseline
Experimental: Patients were rated for dyskinesia at baseline and on days 28 (at end of up-titration period) and 42 (end of stable dosing period). Because the level of dyskinesia experienced by patients can vary over time, they were given 150% (i.e., 1.5×) of their regular L-DOPA dose (up to a maximum of 250 mg) as a challenge 30 min before each dyskinesia assessment to improve comparability between patients and between visits. Patients were filmed 30, 60 and 90 min after dosing with L-DOPA (˜5 min of filming each time). LID was assessed using the Unified Dyskinesia Rating Scale (UDysRS). Changes from baseline are shown for total score (i.e., Parts 1 to 4), for total objective score (i.e., Parts 3+4), and for the sum of Part 3 objective impairment assessment scores. Because objective LID assessment was carried out at 3 time-points (30, 60 and 90 min) following L-DOPA challenge, the above parameters were analyzed based on the most severe of the three scores as well as on the average score of the 3 time points. PD symptoms were assessed by Unified Parkinson's Disease Rating Scale (UPDRS) 30-90 min after the 150% L-DOPA challenge (i.e., when the patient was ON). Changes from baseline are shown for total score (i.e., Parts 1 to 4) and individual scores for each Part, 1, 2, 3 and 4.
The UPDRS consists of 4 parts: • v. Part I assesses non-motor experiences of daily living, such as cognitive impairment and depressed mood. • w. Part II assesses motor experiences of daily living, such as speech and eating tasks. • x. Part III is a motor examination conducted by the clinician, including assessments of symptoms such as rigidity and tremor. • y. Part IV is an assessment of motor complications, such as time spent with dyskinesia and functional impact of dyskinesias.
Each item in the UPDRS is scored from 0 to 4, and the individual scores are summed to give a total score that indicates the severity of the disease, with a score of 0 indicating no disability and a score of 199 being the most severe (indicating total disability).
Change from baseline in UPDRS combined scores (Parts I, II, III and IV) to Visit 6 (Day 28) and Visit 7 (Day 42) respectively would be summarized using descriptive statistics. […] The same analysis would be done for UPDRS Part III only.
The baseline value of the dependent variable has been included in the model as a continuous covariate. Kenward-Roger's improved approximation for degrees of freedom (2009) has been used; ^b)=p-value for the difference between NLX-112 at the assessment timepoint and at baseline; ^c)=p-value for the difference between placebo at the assessment timepoint and at baseline; ^d)=p-value for the difference between NLX-112 and placebo absolute change from baseline at the assessment timepoint.

[3] = tested on: PD patients with LID; assay: Epworth Sleepiness Scale (ESS); type: in vivo, human; settings: for ESS, mean change from baseline: per-protocol set
From the text: The ESS is a self-administered questionnaire with 8 questions. Respondents are asked to rate, on a 4-point scale (0-3), their usual chances of dozing off or falling asleep while engaged in 8 different activities. The ESS score (the sum of 8 item scores, 0-3) can range from 0 to 24. Ratings are based on the previous month, or in the case of this study, the intervening period since the previous clinic visit (about 3 weeks).

[4] = tested on: L-DOPA-induced dyskinesia in rat; settings: 2-week treatment period; cited from earlier work
[5] = tested on: striatal 5-HT release; settings: rat, in vivo; cited from earlier work
[6] = tested on: PD patients with LID; assay: ICIQ Overactive Bladder Module (ICIQ-OAB); type: in vivo, human; settings: for ICIQ-OAB, mean change from baseline: per-protocol set
From the text: The ICIQ-OAB provides a brief and robust measure to assess the impact of symptoms of overactive bladder on quality of life and outcome of treatment. It is a 4-item patient reported outcome covering 4 domains of bladder function: frequency, nocturia, urgency, and urge urinary incontinence. Each item is scored by frequency of 0-4, for a total score of 0-16. Ratings would be based on the previous month or since the last clinic visit. Efficacy would be assessed as change from the baseline total score.

[7] = 5 patients co-treated with amantadine
[8] = Full analysis set, Visit 2 Baseline
[9] = Full analysis set, Visit 6 Clinic Efficacy Visit
[10] = Full analysis set, Visit 7 Clinic Efficacy Visit
[11] = Full analysis set, Visit 9 Follow-up Clinic Visit
[12] = Visit 2 Baseline, per protocol analysis set, N = 15
[13] = Visit 6 Clinic Efficacy Visit (Day 28), per protocol analysis set, N = 15
[14] = Visit 7 Clinic Efficacy Visit (Day 42), per protocol analysis set, N = 15
[15] = Visit 9 Follow-up Clinic Visit, per protocol analysis set, N = 15
[16] = individual patients A-E co-treated with amantadine
[17] = per-protocol set (n = 15), Baseline
[18] = per-protocol set, Δ D 28 (end of up-titration), p < 0.05 vs baseline
[19] = per-protocol set, Δ D 42 (end of stable dosing)
[20] = per-protocol set, Δ D 42 (end of stable dosing), p < 0.01 vs baseline

For `Cc1ccc(CNCC2(F)CCN(C(=O)c3ccc(F)c(Cl)c3)CC2)nc1` [NLX-112, (3-chloro-4-fluoro-phenyl)-[4-fluoro-4-{[(5-methyl-pyridin-2-ylmethyl)-amino]-methyl}piperidin-1-yl]methanone], the rotation behavior [1] is listed as “increases rotation behavior”, the “UPDRS Part 3, mean change from baseline” value [2, 7] is listed as −4.2 and the “UPDRS Total, mean change from baseline” value [2, 7] is listed as −6.6. For the same compound, the “UPDRS Part 2 (motor experiences of daily living), vs baseline” value ([2]; Day 28) was “statistically significant reduction”, the “UPDRS total score (Parts 1-4), change from baseline” value ([2]; Day 28, PPS, p=0.0005 vs baseline) was −6.5 points and the “UPDRS Part 3 score (motor disability), change from baseline” value ([2]; Day 28, PPS) was −3.7 points. The “UPDRS total score (Parts 1-4), change from baseline” value ([2]; Day 42, PPS, p=0.0021 vs baseline) was −5.7 points, the “UPDRS Part 3 score (motor disability), change from baseline” value ([2]; Day 42, PPS) was −3.7 points and the “UPDRS total score absolute change from baseline, NLX-112 vs placebo” value ([2]; Days 28 or 42) was “no significant differences”. For the same compound, the “UPDRS Part 3 Motor Total, collected value, mean” value [2, 8] was 17.8, the “UPDRS Part 3 Motor Total, collected value, median” value [2, 8] was 16.0 and the “UPDRS Total Score (all Parts), collected value, Mean” value [2, 8] was 38.3. The “UPDRS Total Score (all Parts), collected value, Median” value [2, 8] was 37.5, the “UPDRS Part 3 Motor Total, absolute change from baseline, mean” value [2, 9] was −3.7 and the “UPDRS Part 3 Motor Total, absolute change from baseline, median” value [2, 9] was −4.0. For the same compound, the “UPDRS Part 3 Motor Total, collected value, mean” value [2, 9] was 13.9, the “UPDRS Part 3 Motor Total, collected value, median” value [2, 9] was 14.0 and the “UPDRS Part 3 Motor Total, relative change from baseline (%), mean” value [2, 9] was −21.8%. The “UPDRS Part 3 Motor Total, relative change from baseline (%), median” value [2, 9] was −21.4%, the “UPDRS Total Score (all Parts), absolute change from baseline, Mean” value [2, 9] was −6.5 and the “UPDRS Total Score (all Parts), absolute change from baseline, Median” value [2, 9] was −5.0. For the same compound, the “UPDRS Total Score (all Parts), collected value, Mean” value [2, 9] was 30.5, the “UPDRS Total Score (all Parts), collected value, Median” value [2, 9] was 29.0 and the “UPDRS Total Score (all Parts), relative change from baseline (%), Mean” value [2, 9] was −17.4%. For the same compound, the “UPDRS Total Score (all Parts), relative change from baseline (%), Median” value [2, 9] was −15.2%, the “UPDRS Part 3 Motor Total, absolute change from baseline, mean” value [2, 10] was −3.7 and the “UPDRS Part 3 Motor Total, absolute change from baseline, median” value [2, 10] was −4.0. For the same compound, the “UPDRS Part 3 Motor Total, collected value, mean” value [2, 10] was 13.9, the “UPDRS Part 3 Motor Total, collected value, median” value [2, 10] was 14.0 and the “UPDRS Part 3 Motor Total, relative change from baseline (%), mean” value [2, 10] was −21.5%. For the same compound, the “UPDRS Part 3 Motor Total, relative change from baseline (%), median” value [2, 10] was −33.3%, the “UPDRS Total Score (all Parts), absolute change from baseline, Mean” value [2, 10] was −5.7 and the “UPDRS Total Score (all Parts), absolute change from baseline, Median” value [2, 10] was −5.0. For the same compound, the “UPDRS Total Score (all Parts), collected value, Mean” value [2, 10] was 31.3, the “UPDRS Total Score (all Parts), collected value, Median” value [2, 10] was 30.0 and the “UPDRS Total Score (all Parts), relative change from baseline (%), Mean” value [2, 10] was −15.7%. The “UPDRS Total Score (all Parts), relative change from baseline (%), Median” value [2, 10] was −19.2%, the “UPDRS Part 3 Motor Total, absolute change from baseline, mean” value [2, 11] was −2.7 and the “UPDRS Part 3 Motor Total, absolute change from baseline, median” value [2, 11] was −2.0. The “UPDRS Part 3 Motor Total, collected value, mean” value [2, 11] was 14.8, the “UPDRS Part 3 Motor Total, collected value, median” value [2, 11] was 13.0 and the “UPDRS Part 3 Motor Total, relative change from baseline (%), mean” value [2, 11] was −11.2%. The “UPDRS Part 3 Motor Total, relative change from baseline (%), median” value [2, 11] was −14.3%, the “UPDRS Total Score (all Parts), absolute change from baseline, Mean” value [2, 11] was −4.4 and the “UPDRS Total Score (all Parts), absolute change from baseline, Median” value [2, 11] was −3.0. For the same compound, the “UPDRS Total Score (all Parts), collected value, Mean” value [2, 11] was 32.6, the “UPDRS Total Score (all Parts), collected value, Median” value [2, 11] was 31.0 and the “UPDRS Total Score (all Parts), relative change from baseline (%), Mean” value [2, 11] was −9.57%. The “UPDRS Total Score (all Parts), relative change from baseline (%), Median” value [2, 11] was −11.5%, the “UPDRS Part 3 Motor Total, collected value, mean” value [2, 12] was 17.5 and the “UPDRS Part 3 Motor Total, collected value, median” value [2, 12] was 17.0. For the same compound, the “UPDRS Total Score, collected value, mean” value [2, 12] was 37.0, the “UPDRS Total Score, collected value, median” value [2, 12] was 36.0 and the “UPDRS Part 3 Motor Total, absolute change from baseline, mean” value [2, 13] was −3.7. For the same compound, the “UPDRS Part 3 Motor Total, absolute change from baseline, median” value [2, 13] was −4.0, the “UPDRS Part 3 Motor Total, collected value, mean” value [2, 13] was 13.9 and the “UPDRS Part 3 Motor Total, collected value, median” value [2, 13] was 14.0. The “UPDRS Part 3 Motor Total, relative change from baseline (%), mean” value [2, 13] was −21.8%, the “UPDRS Part 3 Motor Total, relative change from baseline (%), median” value [2, 13] was −21.4% and the “UPDRS Total Score, absolute change from baseline, mean” value [2, 13] was −6.5. The “UPDRS Total Score, absolute change from baseline, median” value [2, 13] was −5.0, the “UPDRS Total Score, collected value, mean” value [2, 13] was 30.5 and the “UPDRS Total Score, collected value, median” value [2, 13] was 29.0. For the same compound, the “UPDRS Total Score, relative change from baseline (%), mean” value [2, 13] was −17.4%, the “UPDRS Total Score, relative change from baseline (%), median” value [2, 13] was −15.2% and the “UPDRS Part 3 Motor Total, absolute change from baseline, mean” value [2, 14] was −3.7. For the same compound, the “UPDRS Part 3 Motor Total, absolute change from baseline, median” value [2, 14] was −4.0, the “UPDRS Part 3 Motor Total, collected value, mean” value [2, 14] was 13.9 and the “UPDRS Part 3 Motor Total, collected value, median” value [2, 14] was 14.0. The “UPDRS Part 3 Motor Total, relative change from baseline (%), mean” value [2, 14] was −21.5%, the “UPDRS Part 3 Motor Total, relative change from baseline (%), median” value [2, 14] was −33.3% and the “UPDRS Total Score, absolute change from baseline, mean” value [2, 14] was −5.7. The “UPDRS Total Score, absolute change from baseline, median” value [2, 14] was −5.0, the “UPDRS Total Score, collected value, mean” value [2, 14] was 31.3 and the “UPDRS Total Score, collected value, median” value [2, 14] was 30.0. For the same compound, the “UPDRS Total Score, relative change from baseline (%), mean” value [2, 14] was −15.7%, the “UPDRS Total Score, relative change from baseline (%), median” value [2, 14] was −19.2% and the “UPDRS Part 3 Motor Total, absolute change from baseline, mean” value [2, 15] was −2.7. The “UPDRS Part 3 Motor Total, absolute change from baseline, median” value [2, 15] was −2.0, the “UPDRS Part 3 Motor Total, collected value, mean” value [2, 15] was 14.8 and the “UPDRS Part 3 Motor Total, collected value, median” value [2, 15] was 13.0. The “UPDRS Part 3 Motor Total, relative change from baseline (%), mean” value [2, 15] was −11.2%, the “UPDRS Part 3 Motor Total, relative change from baseline (%), median” value [2, 15] was −14.3% and the “UPDRS Total Score, absolute change from baseline, mean” value [2, 15] was −4.4. For the same compound, the “UPDRS Total Score, absolute change from baseline, median” value [2, 15] was −3.0, the “UPDRS Total Score, collected value, mean” value [2, 15] was 32.6 and the “UPDRS Total Score, collected value, median” value [2, 15] was 31.0. For the same compound, the “UPDRS Total Score, relative change from baseline (%), mean” value [2, 15] was −9.57%, the “UPDRS Total Score, relative change from baseline (%), median” value [2, 15] was −11.5% and the “reduction in UPDRS Part 3 score, more than placebo” value ([2]; day 42) was 3.9 points. The “UPDRS Part 1 (non-motor experiences of daily living), vs baseline” value ([2]; days 28 and 42) was “no statistically significant changes from baseline”, the “UPDRS Part IV (motor complications), vs baseline” value ([2]; days 28 and 42) was “significant reduction” and the “UPDRS Part 3, Δ from baseline” value [2, 16] was −9 and −13 and +3 and +2 and −4. The “UPDRS Total, Δ from baseline” value [2, 16] was −15 and −11 and −5 (2×) and +3, the “patients on NLX-112 and amantadine with numerical reductions in PD symptoms (UPDRS)” value ([2]; of the 5 patients) was 4 and the “UPDRS Part 1, mean” value [2, 17] was 1.0. For the same compound, the “UPDRS Part 2, mean” value [2, 17] was 10.7, the “UPDRS Part 3, mean” value [2, 17] was 17.5 and the “UPDRS Part 4, mean” value [2, 17] was 8.0. The “UPDRS Total (Parts 1 to 4), mean” value [2, 17] was 37.0, the “UPDRS Part 1, mean change from baseline” value ([2]; per-protocol set, Δ D 28 (end of up-titration)) was 0.2 and the “UPDRS Total (Parts 1 to 4), mean change from baseline” value ([2]; per-protocol set, Δ D 28 (end of up-titration), p < 0.001 vs baseline) was −6.5. The “UPDRS Part 3, mean change from baseline” value ([2]; per-protocol set, Δ D 28 (end of up-titration), p < 0.01 vs baseline, p < 0.05 vs placebo) was −3.7, the “UPDRS Part 2, mean change from baseline” value [2, 18] was −2.1 and the “UPDRS Part 4, mean change from baseline” value [2, 18] was −0.9. The “UPDRS Part 1, mean change from baseline” value [2, 19] was 0.1, the “UPDRS Part 2, mean change from baseline” value [2, 19] was −1.2 and the “UPDRS Part 3, mean change from baseline” value [2, 20] was −3.7. For the same compound, the “UPDRS Total (Parts 1 to 4), mean change from baseline” value [2, 20] was −5.7, the “UPDRS Part 4, mean change from baseline” value ([2]; per-protocol set, Δ D 42 (end of stable dosing), p < 0.05 vs baseline) was −0.9 and the “sleepiness (ESS)” value ([3]; Days 28 or 42) was “no consistent statistically significant effect”. The “ESS, mean” value [3, 17] was 8.3, the “ESS, mean change from baseline” value ([3]; Δ D 28 (end of up-titration)) was −1.1 and the “ESS, mean change from baseline” value ([3]; Δ D 42 (end of stable dosing)) was −0.9. For the same compound, the “antidyskinetic efficacy against L-DOPA-induced dyskinesia” value [4] was “did maintain its antidyskinetic efficacy”, the “striatal 5-HT release and dopamine surge following L-DOPA” value [5] was “inhibited striatal 5-HT release and blunted the ‘dopamine surge’” and the “incontinence (ICIQ-OAB)” value ([6]; Days 28 or 42) was “no consistent statistically significant effect”. The “ICIQ-OAB, mean” value [6, 17] was 18.3, the “ICIQ-OAB, mean change from baseline” value ([6]; Δ D 28 (end of up-titration)) was 0.7 and the “ICIQ-OAB, mean change from baseline” value ([6]; Δ D 42 (end of stable dosing)) was −0.8.
